Laboratory results published in ChEMBL document CHEMBL2040790 (Bioorg Med Chem Lett, 2012).
Calls of active or inactive are those of the source. No cut-off for these calls is given here.

Tests used:
Format in all cases: functional, organism-based
Vaccinia virus = experiment: Antiviral activity against Vaccinia virus; details: Orthopoxvirus vaccinia
La Crosse virus [1] = experiment: Antiviral activity against La Crosse virus infected in african green monkey Vero cells assessed as inhibition of virus-induced cytopathic effect by fluorometric analysis
La Crosse virus [2] = experiment: Antiviral activity against La Crosse virus infected in african green monkey Vero cells assessed as inhibition of virus-induced cytopathic effect at 25 uM during single experiment set up by fluorometric analysis

Row | SMILES | EC50 (Vaccinia virus) [µM] | EC50 (La Crosse virus [1]) [µM] | Activity (La Crosse virus [2])
1 | COc1cc(N/C(=N/C(=O)c2ccc(C(C)(C)C)cc2)SCCN(C)C)ccc1NC(=O)c1ccccc1Cl | > 25 | > 25 | 
2 | COc1cc(NC(=S)NCc2ccc(C(C)(C)C)cc2)ccc1NC(=O)c1ccccc1Cl | > 25 | > 25 | 
3 | CC(C)(C)c1ccc(C(=O)NC(=S)Nc2ccc([N+](=O)[O-])cc2)cc1 | 4.08 | > 25 | 
4 | COc1cc(NC(=S)NC(=O)c2ccc(C(C)(C)C)cc2)ccc1NCc1ccccc1Cl | 0.34 | 0.2 | 
5 | Cc1cccc(Cl)c1NC(=S)NC(=O)c1ccc(C(C)(C)C)cc1 | 2.49 | 0.94 | 
6 | CCN(C(=S)NC(=O)c1ccc(C(C)(C)C)cc1)c1ccc(NC(=O)c2ccccc2Cl)c(OC)c1 | 10.1 | > 25 | 
7 | Cc1cc(C)cc(NC(=S)NC(=O)c2ccc(C(C)(C)C)cc2)c1 | 3.48 | 4.43 | inactive
8 | COc1cc(NC(=S)NC(=O)c2ccc(C(C)(C)C)cc2)ccc1NC(=N)N | > 25 | > 25 | 
9 | CC(C)(C)c1ccc(C(=O)NC(=S)Nc2cccc(CN)c2)cc1 | > 25 | > 25 | 
10 | CC(C)(C)c1ccc(C(=O)NC(=S)Nc2ccc(N)cc2Cl)cc1 | 0.62 | 0.75 | 
11 | COc1cc(NC(=S)NC(=O)c2ccc(C(C)(C)C)cc2)ccc1NC(=O)c1ccncc1 | 2.03 |  | 
12 | COc1cc(NC(=S)NC(=O)c2ccc(C(C)(C)C)cc2)ccc1NC(=O)c1cnccn1 | > 25 | > 25 | 
13 | COc1cc(N/C(=N/C#N)NC(=O)c2ccc(C(C)(C)C)cc2)ccc1NC(=O)c1ccccc1Cl | > 25 |  | 
14 | COc1ccccc1NC(=S)NC(=O)c1ccc(C(C)(C)C)cc1 | 1.39 | 1.15 | 
15 | CC(C)(C)c1ccc(C(=O)NC(=S)Nc2ccc(Nc3cccnc3)cc2)cc1 | 24.5 | > 25 | 
16 | COc1cc(NC(=S)NC(=O)c2ccc(C(C)(C)C)cc2)ccc1NC(=O)c1ccc(N)cc1 | 20 | > 25 | 
17 | COc1cc(NC(=S)NC(=O)c2ccc(C(C)(C)C)cc2)ccc1NC(=O)CCC(=O)O | > 25 | > 25 | 
18 | COc1cc(NC(=S)NC(=O)c2ccc(C(C)(C)C)cc2)ccc1NC(=N)c1ccccc1Cl | 1.75 | 2.06 | 
19 | CCS/C(=N\C(=O)c1ccc(C(C)(C)C)cc1)Nc1ccc(NC(=O)c2ccccc2Cl)c(OC)c1 | 0.23 | 0.3 | 
20 | Cc1ccc(C)c(NC(=S)NC(=O)c2ccc(C(C)(C)C)cc2)c1 | 2.86 | > 25 | 
21 | COc1cc(NC(=S)NC(=O)c2ccc(C(C)(C)C)cc2)ccc1NC(N)=O | > 25 | 4.86 | 
22 | CN(Cc1ccccc1)S(=O)(=O)c1ccc(NC(=S)NC(=O)c2ccc(C(C)(C)C)cc2)cc1 | > 25 | > 25 | 
23 | COc1cc(NC(=S)NC(=O)c2ccc(C(C)(C)C)cc2)ccc1NC(=O)c1c[nH]cn1 | > 25 | > 25 | 
24 | COc1cc(NC(=S)NC(=O)c2ccc(C(C)(C)C)cc2)ccc1NC(=O)c1ccccc1N | 2.61 | > 25 | 
25 | CC(C)(C)c1ccc(C(=O)NC(=S)Nc2ccc(NC(=O)c3ccccc3Cl)c(O)c2)cc1 | 0.23 | 0.21 | 
26 | COC(=O)CC(=O)Nc1ccc(NC(=S)NC(=O)c2ccc(C(C)(C)C)cc2)cc1OC | 18.6 | > 25 | 
27 | CC(C)(C)c1ccc(C(=O)NC(=S)Nc2ccc(C(=O)O)cc2)cc1 | > 25 | > 25 | 

Row | SMILES | EC50 (Vaccinia virus) [µM] | EC50 (La Crosse virus [1]) [µM] | Activity (La Crosse virus [2])
28 | CC(C)(C)c1ccc(C(=O)NC(=S)NC2CCCCC2)cc1 | 4.92 | 3.71 | 
29 | COc1ccc(NC(=S)NC(=O)c2ccc(C(C)(C)C)cc2)cc1NC(=O)c1ccccc1Cl | > 25 | > 25 | 
30 | CC(C)(C)c1ccc(C(=O)NC(=S)Nc2ccc(Cl)cc2Cl)cc1 | > 25 | > 25 | 
31 | CC(C)(C)c1ccc(C(=O)NC(=S)Nc2ccccc2)cc1 | 5.57 | 5.01 | inactive
32 | CNc1ccc(NC(=S)NC(=O)c2ccc(C(C)(C)C)cc2)cc1 | 1.16 | 1.45 | 
33 | COc1cc(NC(=S)NC(=O)c2ccc(C(C)(C)C)cc2)ccc1NC(C)=O | 3.27 | 1.35 | 
34 | CC(C)(C)c1ccc(C(=O)NC(=S)Nc2ccccc2N)cc1 | > 25 | > 25 | 
35 | CC(C)(C)c1ccc(C(=O)NC(=S)Nc2cccc(Cl)c2)cc1 | 1.58 | 4.16 | 
36 | COc1cc(NC(=S)NC(=O)c2ccc(C(C)(C)C)cc2)ccc1NC(=O)c1ccccn1 | > 25 | > 25 | 
37 | CC(C)(C)c1ccc(C(=O)NC(=S)Nc2ccc(Nc3ccccc3)cc2)cc1 | 0.82 | 1.7 | 
38 | COC(=O)c1cnc(NC(=S)NC(=O)c2ccc(C(C)(C)C)cc2)s1 | > 25 | > 25 | 
39 | CC(C)(C)c1ccc(C(=O)NC(=S)Nc2ccc(S(=O)(=O)N3CCCCC3)cc2)cc1 | > 25 | > 25 | 
40 | Cc1ccc(NC(=S)NC(=O)c2ccc(C(C)(C)C)cc2)cc1 | 1.91 | 4.86 | 
41 | CC(C)(C)c1ccc(C(=O)NC(=S)Nc2ccc(Cl)cc2)cc1 | > 25 | > 25 | 
42 | COc1cc(NC(=S)NC(=O)c2ccc(C(C)(C)C)cc2)ccc1NC(=O)CCN(C)C | > 25 | > 25 | 
43 | Cc1ccc(NC(=S)NC(=O)c2ccc(C(C)(C)C)cc2)c(C)c1 | 1.06 | 0.88 | 
44 | Cc1ccc(NC(=S)NC(=O)c2ccc(C(C)(C)C)cc2)cc1C | 3.93 | 1.23 | 
45 | CC(C)(C)c1ccc(C(=O)NC(=S)Nc2cc(OC(F)(F)F)ccc2Cl)cc1 | 1.9 | > 25 | 
46 | Cc1cccc(NC(=S)NC(=O)c2ccc(C(C)(C)C)cc2)c1 | 1.01 | 1.33 | 
47 | COc1cc(NC(=S)NC(=O)c2ccc(C(C)(C)C)cc2)ccc1NC(=O)c1ccc2nc[nH]c2c1 | > 25 | > 25 | 
48 | COc1cc(NC(=N)NC(=O)c2ccc(C(C)(C)C)cc2)ccc1NC(=O)c1ccccc1Cl | > 25 |  | 
49 | CC(C)(C)c1ccc(C(=O)NC(=S)Nc2ccccn2)cc1 | > 25 | > 25 | 
50 | COc1cc(NC(=S)NC(=O)c2ccc(C(C)(C)C)cc2)ccc1NC(=S)c1ccccc1Cl | 0.99 | 0.64 | 
51 | CCS/C(=N\C(=O)c1ccc(C(C)(C)C)cc1)Nc1ccccc1Cl | 1.91 | 0.51 | 
52 | CC(C)(C)c1ccc(C(=O)NC(=S)Nc2cc(C(F)(F)F)ccc2Cl)cc1 | 1 | 0.6 | 
53 | CC(C)(C)c1ccc(C(=O)NC(=S)Nc2cccc(C(=O)O)c2)cc1 | > 25 | > 25 | 
54 | CC(C)(C)c1ccc(C(=O)NC(=S)Nc2ccc(Nc3ccccn3)cc2)cc1 | > 25 | > 25 | 

Row | SMILES | EC50 (Vaccinia virus) [µM] | EC50 (La Crosse virus [1]) [µM] | Activity (La Crosse virus [2])
55 | CC(C)(C)c1ccc(C(=O)NC(=S)Nc2cccc(NC(=O)c3ccccc3Cl)c2)cc1 | > 25 | > 25 | 
56 | CC(C)(C)c1ccc(C(=O)NC(=S)Nc2ccc(S(=O)(=O)NC3CCCCC3)cc2)cc1 | > 25 | > 25 | 
57 | CC(C)(C)c1ccc(C(=O)NC(=S)Nc2cccnc2)cc1 | > 25 | > 25 | 
58 | CC(C)(C)c1ccc(C(=O)NC(=S)Nc2ccc(NC(=O)c3ccccc3Cl)c(N)c2)cc1 | 0.06 | 0.05 | 
59 | Cc1ccccc1NC(=S)NC(=O)c1ccc(C(C)(C)C)cc1 | 0.83 | 0.63 | 
60 | CC(C)(C)c1ccc(C(=O)NC(=S)Nc2nc(-c3cccc([N+](=O)[O-])c3)cs2)cc1 | > 25 | > 25 | 
61 | COc1cc(NC(=S)NC(=O)c2ccc(C(C)(C)C)cc2)ccc1NC(=O)CC(=O)O | > 25 | > 25 | 
62 | COc1cc(NC(=S)NC(=O)c2ccc(C(C)(C)C)cc2)ccc1NC(=O)CCCCN(C)C | > 25 | > 25 | 
63 | COc1ccc(NC(=S)NC(=O)c2ccc(C(C)(C)C)cc2)cc1 | 2.39 | > 25 | 
64 | Cc1cccc(NC(=S)NC(=O)c2ccc(C(C)(C)C)cc2)c1Cl | 1.83 | 1.17 | 
65 | CC(C)(C)c1ccc(C(=O)NC(=S)Nc2ccc(S(=O)(=O)Nc3nccs3)cc2)cc1 | > 25 | > 25 | 
66 | CC(C)(C)c1ccc(C(=O)NC(=S)Nc2ccc(NC(=O)c3ccccc3)cc2Cl)cc1 | 0.16 | 0.08 | 
67 | COc1cccc(NC(=S)NC(=O)c2ccc(C(C)(C)C)cc2)c1 | 4.07 | > 25 | 
68 | CC(C)(C)c1ccc(C(=N)NC(=S)Nc2ccccc2Cl)cc1 | > 25 | > 25 | 
69 | COc1cc(N/C(=N/C(=O)c2ccc(C(C)(C)C)cc2)SCC(=O)OC(C)(C)C)ccc1NC(=O)c1ccccc1Cl | > 25 | > 25 | 
70 | COc1cc(NC(=S)NC(=O)c2ccc(C(C)(C)C)cc2)ccc1NC(=O)c1ncc[nH]1 | > 25 | > 25 | 
71 | CC(C)(C)c1ccc(C(=O)NC(=S)Nc2cccc(C(F)(F)F)c2Cl)cc1 | 1.83 | 0.85 | 
72 | COc1cc(NC(=S)NC(=O)c2ccc(C(C)(C)C)cc2)ccc1NC(=O)c1cccc(N)c1 | > 25 | > 25 | 
73 | CC(C)(C)c1ccc(C(=O)NC(=S)Nc2cccc([N+](=O)[O-])c2)cc1 | > 25 | > 25 | 
74 | CN(C)c1ccc(NC(=S)NC(=O)c2ccc(C(C)(C)C)cc2)cc1 | 2.43 |  | 
75 | COc1cc(NC(=S)NC(=O)c2ccc(C(C)(C)C)cc2)ccc1NC(=O)c1cccnc1 | 1.72 |  | 
76 | COc1cc(NC(=S)NC(=O)c2ccc(C(C)(C)C)cc2)ccc1NC(=O)c1ncccn1 | > 25 | > 25 | 
77 | COc1ccc(-c2csc(NC(=S)NC(=O)c3ccc(C(C)(C)C)cc3)n2)cc1OC | > 25 | > 25 | 
78 | CC(C)(C)c1ccc(C(=O)NC(=S)Nc2ccc(Nc3ccncc3)cc2)cc1 | > 25 | 7.7 | 
79 | Cc1cccc(NC(=S)NC(=O)c2ccc(C(C)(C)C)cc2)c1C | 1.83 | 2.59 | 
80 | CC(C)(C)c1ccc(C(=O)NC(=S)Nc2ccccc2[N+](=O)[O-])cc1 | 3.64 | 3.7 | 
